Experimental data as given in patent US20230293735A1, “OXINE-CONTAINING CELL RADIOLABELLING AGENTS” (priority 2020, published 2023).

Legend:
[1] = test system: eosinophils; conditions: ref. [31]; cited from earlier work
[2] = Activity recovery from vial (gamma-counting of aliquots); type: physicochemical; conditions: for added ^89Zr activity recoverable: formulation with 5% EtOH
Method: FIG. 9. Recovery of ^89Zr-oxine complexes from the reaction vial over time. The figure compares formulations containing 8-hydroxyquinoline, HEPES and NaOH only (dots), and additional 5% EtOH (squares) or 1 mg/mL polysorbate 80 (diamonds). ^89Zr-oxalate was added to 100 µL of the formulation of the invention in a glass vial and left at room temperature for up to 1 week. 10 µL aliquots were removed from the glass vial immediately after addition (0 min) and after 15 min, 30 min, 1, 2, 24, 48, 72 and 168 h, then gamma-counted at the end of the experiment. The recovered activity is expressed as the activity in the aliquot at the indicated time as a percentage of the activity sampled immediately after addition of ^89Zr to the-formulation of the invention. Mean±SD, N=3.
FIG. 10. Recovery of ^89Zr-oxine complexes from the reaction vial over time as a function of the amount of polysorbate 80. […] 10 µL aliquots were removed from the glass vial immediately after addition (0 min) and after 15 min, 30 min, 1, 2, 24, 48, 72 and 168 h, then gamma-counted at the end of the experiment. The recovered activity is expressed as the activity in the aliquot at the indicated time as a percentage of the activity sampled immediately after addition of ^89Zr to the formulation of the invention. […]
The stability of the compositions described herein can be assessed, for example, in terms of their recovered activity. The recovered activity is expressed as the percentage of activity (i.e. radioactivity, as assessed by gamma-counting) in a sample at the time of measurement, relative to the activity sampled immediately after addition of the radioactive metal containing solution to the oxine formulation described herein. […]
Activity recovery from vial: ^89Zr was added to 100 µL of the formulation. […] The aliquots were gamma-counted on day 7 after addition of ^89Zr. The percentage of activity recovered from the vial was determined as the counts in each sample divided by the counts in the reference sample.

[3] = test system: WBC; test: Viability of radiolabelled cells, Trypan Blue dye exclusion; type: cell-based, human
Method: FIG. 16. WBC radiolabelling with ^89Zr-oxine and ^111In-oxine. Percentage of viable ^89Zr- and ^111n-labelled WBC after 4 h and 24 h, measured using the Trypan blue assay. Mean ± SD of n=6 per group, Student’s two-tailed paired t-test. ns: not significant (p≥0.05).
Viability was assessed by microscopy using the Trypan Blue dye exclusion method. Cell viability after radiolabelling with ^89Zr-oxine was 99.4±0.3% immediately after labelling, 97.0±2.3% after 4 h and 92.6±4.8% after 24 h (FIG. 16).

[4] = test system: WBCs; test: In vitro chemotaxis assay of radiolabelled WBC towards fMLP; type: cell-based, human; conditions: vs ^111In-oxine and unlabelled control cells
Method: FIG. 17. Chemotaxis of radiolabelled WBC. Cells were incubated with ^89Zr-oxine, ^111In-oxine, or vehicle only. The chemotaxis index is the number of cells migrating towards 10 nM fMLP divided by the number of cells migrating towards vehicle, averaged from triplicates for each sample. Each point represents one donor. Bars represent the mean ± SD of n = 9, 10 and 10 individual samples. p≥0.05.
The functionality of WBCs radiolabelled as in Example 8 was tested using an in vitro chemotaxis assay, where the number of WBCs migrating in response to the neutrophil chemoattractant N-formyl-Met-Leu-Phe (fMLP) was measured.
After radiolabelling, red blood cells (RBCs) were removed from the cell pellets hypotonic lysis. Cells were resuspended in 4.5 mL cold H2O for 30 s, after which isotonicity was restored by addition of 0.5 mL 10x PBS. Lysed RBC were removed by centrifugation and the remaining WBC were resuspended in assay medium at 3.5×10^6 cells/mL. […] The top wells were emptied, the plate was centrifuged at 150 g for 5 min to detach the cells from the membrane and the cells in the bottom wells were counted using a haemocytometer. The chemotaxis index (CI) was calculated by dividing the number of WBC in the wells containing fMLP by the number of WBC in the wells containing medium only.

[5] = test system: WBC populations; test: Relative activity per cell in FACS-sorted WBC populations, gamma-counted; type: cell-based, human; conditions: flow-assisted cell sorting
Method: FIG. 18. Relative activity per cell of ^89Zr in WBC populations after labelling of mixed WBC with ^89Zr-oxine. Radiolabelled WBC were sorted by FACS and gamma-counted. Each point represents cells from an individual donor.
To determine whether certain subtypes of WBC had preferential uptake of ^89Zr-oxine, radiolabelled WBC were stained with fluorescent monoclonal antibodies, automatically sorted and gamma-counted. ^89Zr-radiolabelled WBC were stained (15 min at 4° C.) with a combination of CD45-APC-Vio770 (#130-110-773), CD3-PE (REA613, #130-113-701), CD14-APC (#130-110-578), CD19-PE-Vio770 (REA675, #130-114-173) and CD16-FITC (REA423, #130-113-954) antibodies to sort samples into neutrophils, eosinophils, monocytes, T cells and B cells, or CD45-APC-Vio770, […] (REA175, #130-117-800) and CD41a-PE (REA386, #130-121-429) to sort red blood cells and platelets. Compensation settings were adjusted using beads (anti-REA MACS® Comp, #130-104-693). Samples were analysed and sorted on a FACSMelody instrument (BD Biosciences) equipped with blue (488 nm), yellow-green ([…]) and red (633 nm) lasers. For each cell type, a fixed number of events was collected, and the fractions were gamma-counted to determine the amount of activity per cell.

[6] = test system: Extracellular vesicles; test: Radiolabelling efficiency of extracellular vesicles; conditions: EVs from B16-F10.GFP, MDA-MB-231.CD63-GFP, PANC1, 4T1 and 2D/3D MSC cultures
Method: FIG. 23. Use of the kit formulation to radiolabel extracellular vesicles (EVs) for imaging purposes.
Extracellular vesicles are isolated by any suitable method (e.g. by density gradient centrifugation). Extracellular vesicles (e.g. 1×10^10 to 1×10^11 vesicles) in 160 µL PBS were incubated with 20 µL ^89Zr-oxine or unchelated ^89Zr for 20 min at 37° C. with frequent shaking, followed by addition of 100 µL 1% deferoxamine in PBS to trap any unbound ^89Zr. Radiolabelled EVs were purified from unchelated radiotracer by size-exclusion chromatography (SEC) using cross-linked agarose resin (e.g. Sepharose CL-2B, GE Healthcare) in plastic columns. The reaction mixture was loaded onto the column followed by 200 µL PBS and eluted with 700-800 µL PBS. Radioactivity of the eluate and the column was measured using gamma counting to calculate labelling efficiency. The labelling efficiency of EVs obtained from B16-F10.GFP, MDA-MB-231.CD63-GFP, PANC1 and 4T1 cell lines and from 2D and 3D cultures of mesenchymal stem cells (MSC) B with ^89Zr-oxine ranged from 5.4 ± 3.2% for 2D-culture derived MSC-EVs to 27.6 ± 6.5% for 4T1 EVs (FIG. 23).

[7] = test system: Human WBCs; test: Radiolabel retention in radiolabelled WBC in autologous cell free plasma; type: cell-based; conditions: p>0.05, n=10
Method: Human WBCs from 10 healthy donors were radiolabelled with ^89Zr-oxine and ^111In-oxine as described in Example 8 and an intra-individual comparison of labelling with ^89Zr-oxine and ^111In-oxine was performed. Labelling efficiency was determined as described in Example 7. For radiolabel retention studies, radiolabelled WBC were suspended in autologous CFP (cell free plasma), in triplicate in a 24-well plate and incubated at 37° C. Cells were collected after 4 h or 24 h, diluted with PBS, centrifuged at 200 g for 10 min, and supernatants and pellets were measured in a dose calibrator to determine retention using the same formula as for labelling efficiency. The labelling efficiency of WBCs with ^89Zr-oxine was 48.7±6.3%, vs 89.1±9.5 (p<0.0001, n=10) for ^111In-oxine (FIG. 14). Cellular retention of ^89Zr was 91.4±1.4% after 4 h incubation in autologous CFP and 86.6±2.9% after 24 h (FIG. 15). […] The labelling of WBC with ^89Zr-oxine was reliable, consistently achieving 45-50% labelling efficiency with 160-480 million cells.

Q: For `C/C(=N\[O-])[C@@H](C)[N-]CC(C)(C)C[N-][C@H](C)/C(C)=N/O.[O]=[99Tc+3]` (racemic) [^99mTc-HMPAO], which “preferential accumulation in leucocyte subtype” value [1] is on record?
A: Its value is “accumulated preferentially in eosinophils”.

Q: With `c1cnc2c([O][89Zr]([O]c3cccc4cccnc34)([O]c3cccc4cccnc34)[O]c3cccc4cccnc34)cccc2c1` [^89Zr-oxine] as the compound, how does the “added activity recoverable from the vial” value ([2]; 1 M HEPES buffer (pH 7.9), no surfactant or organic solvent, glass vessel, 15 min after addition of ^89Zr) read?
A: Its value is 46%.

Q: And the “added ^89Zr activity recoverable” value ([2]; after 1 h)?
A: The value was 46%.

Q: What about the “added ^89Zr activity recoverable” value ([2]; after 24 h) of the same compound?
A: Its value is “less than 6%”.

Q: What about the “cell viability after radiolabelling” value ([3]; after 4 h) of the same compound?
A: The value was 97.0±2.3%.

Q: What about the “cell viability after radiolabelling” value ([3]; after 24 h) of the same compound?
A: Its value is 92.6±4.8%.

Q: And the “cell viability after radiolabelling” value ([3]; immediately after labelling)?
A: Its value is 99.4±0.3%.

Q: And the “chemotactic properties of labelled WBC” value [4]?
A: Its value is “retained their chemotactic properties”.

Q: And the “preferential uptake by leukocyte populations” value [5]?
A: Its value is “no preferential uptake by any specific leukocyte population”.

Q: What about the “uptake in RBCs and platelets” value [5] of the same compound?
A: Its value is “significant uptake”.

Q: What about the “labelling efficiency of EVs compared to unchelated ^89Zr” value [6] of the same compound?
A: Its value is “higher labelling efficiency”.

Q: What does the source list for `c1cnc2c([O][111In]([O]c3cccc4cccnc34)[O]c3cccc4cccnc34)cccc2c1` [^111In-oxine, reference compound]?
A: radiolabelling agent retention compared with ^89Zr-oxine [7]: no significant differences; viability compared with ^89Zr-oxine ([3]; p>0.05, n=6-10): no significant differences
